Test results reported in patent US20260062705A1, “TREATMENT FOR OVARIAN CANCER WITH OLIGONUCLEOTIDES TARGETING FIBROBLAST ACTIVATION PROTEIN ALPHA” (UNIVERSITY OF FLORIDA RESEARCH FOUNDATION, INCORPORATED, priority 2022, published 2026).
Where a SMILES comes first, the peptide text is derived from it. The star is where a group is joined. Cbz = O=C(OCc1ccccc1)*; CH2F = FC*

Assays:
Format in all cases: cell-based, human
HEY cells = assay: CCK-8 cell viability assay; details: for effect on cell viability: 100 nM for 4 days, FIG. 4D
Procedure: (§1) Briefly, cells were cultured in 96-well plates and CCK-8 reagent was added to cells. After 2-h incubation at 37° C., absorbance was measured using a Bio-Rad plate reader at 460 nm. In vitro invasion was assayed using Matrigel invasion chamber available from Cell Biolabs Inc (San Diego, CA) according to manufacturer's protocol. Flow cytometry-based cell apoptosis was determined using Dead Cell Apoptosis Kits with Annexin V (Thermo Fisher, Cat #V13242) according to manufacturer's protocol. Lipid raft fractions were prepared using Minute™ Plasma Membrane-Derived Lipid Raft Isolation Kit (Invent Biotechnologies, Plymouth, MN) according to manufacturer's protocol.

OVCAR8 cells = assay: CCK-8 cell viability assay; details: for effect on cell viability: 100 nM for 4 days, FIG. 4D
Procedure: as §1

[1] = test system: FAP-PRKDC co-localization in HEY cells; assay: Confocal immunofluorescence staining of FAP and PRKDC; details: 5 mM MBC for 1 day, FIG. 6E
Procedure: (§2) Immunofluorescence staining: Cells were plated on coverslips for overnight and then fixed with 4% paraformaldehyde followed by permeabilization with 1% Triton X-100. Cells were washed three times with 1×PBS (Thermo Fisher, Cat #: 10010049). After brief blocking with 1% BSA, cells were incubated with anti-FAP mAb (Cat #sc-65398, Santa Cruz Biotechnology, Santa Cruz, CA) or anti-PRKDC polyclonal antibody (Cat #ab32566, Abcam) for 1 h and then with secondary antibody (Alexa Fluor® 488 and Alexa Fluor® 568) for another hour. Coverslips were mounted on […] using Permount solution (Cat #: P36961, Thermo Fisher) and cell fluorescence staining was viewed with confocal microscopy (Carl Zeiss Vision, LSM510). To locate lipid rafts, recombinant Cholera toxin subunit B conjugated with Alexa Fluor™ 647 (Cat #C34778, Thermo Fisher) was included during incubation with secondary antibody.
(§3) Both FAP and PRKDC have been reported to be present in the lipid rafts with unknown function (13, 14). We investigated whether FAP-PRKDC interaction occurred in lipid rafts. We first isolated lipid fraction from HEY and OVCAR8 cells followed by western blot analysis to detect FAP and PRKDC. As well characterized lipid raft marker caveolin-1, both FAP and PRKDC were readily seen in lipid raft isolates (FIG. 6C). […]

[2] = test system: FAP-PRKDC co-localization in OVCAR8 cells; assay: as above; details: 5 mM MBC for 1 day, FIG. 6E
Procedure: as §2, §3

Compound | effect on cell viability (HEY cells; HEY cells) | effect on cell viability (OVCAR8 cells; OVCAR8 cells) | further results
Cc1c(-c2c(-c3ccc(F)o3)sc3ncnc(O[C@H](Cc4ccccc4OCc4ccnn4CC(F)(F)F)C(=O)O)c23)ccc(OCCN2CCN(C)CC2)c1Cl [S63845] | much less inhibitory effect | much less inhibitory effect | 
Methyl-beta-cyclodextrin [MBC] |  |  | FAP-PRKDC co-localization after disruption of lipid rafts [1]: undetectable FAP-PRKDC co-localization; FAP-PRKDC co-localization after disruption of lipid rafts [2]: undetectable FAP-PRKDC co-localization
CC[C@H](NC(=O)[C@H](C)NC)C(=O)N1C[C@@H](O)C[C@H]1Cc1c(-c2[nH]c3cc(F)ccc3c2C[C@@H]2C[C@H](O)CN2C(=O)[C@H](CC)NC(=O)[C@H](C)NC)[nH]c2cc(F)ccc12 [Birinapant] | much less inhibitory effect | much less inhibitory effect | 
COCCn1c2c([n+](Cc3cnccn3)c1C)C(=O)c1ccccc1C2=O [YM155] | significant decrease in cell viability | significant decrease in cell viability | 
CC(C)[C@H](N)C(=O)N1CCC[C@H]1B(O)O [Alabostat, Talabostat] |  |  | effect on survival (HEY cells; HEY cells, 1 mM Batimastat or 1 μM Talabostat alone or in combination, 4 days, FIG. 9): little effect; effect on survival (OVCAR8 cells; OVCAR8 cells, 1 mM Batimastat or 1 μM Talabostat alone or in combination, 4 days, FIG. 9): little effect
COC(=O)C[C@H](NC(=O)[C@H](C)NC(=O)[C@@H](NC(=O)OCc1ccccc1)C(C)C)C(=O)CF [zVAD] (Cbz-Val-Ala-Asp(OMe)-CH2F) |  |  | effect on FAP shRNA-led cell death (HEY cells; HEY cells transduced with FAP shRNA, 10 μM from one day post-infection, total 4 days, FIG. 2E): blocked anti-FAP shRNA-led cell death; effect on FAP shRNA-led cell death (OVCAR8 cells; OVCAR8 cells transduced with FAP shRNA, 10 μM from one day post-infection, total 4 days, FIG. 2E): blocked anti-FAP shRNA-led cell death
